# Source: article PMC8617681 (Pharmaceuticals, 2021)
# Read-outs that look alike come from different tables or passages of the source.
# Assay: 2 h pharmacokinetic study with or without elacridar in wild-type and Abcb1a/1b;Abcg2-/- mice
# Type: in vivo
# Conditions: for concentration at 2 h / Cmax / Tmax / AUC(0-t): mouse, 10 mg/kg oral, 2 h; for Cmax / Tmax / AUC(0-t): male, plasma, po, 10 mg/kg; for AUC(0-t): read-out: AUC0–2h
# Description: Mice were housed and handled according to institutional guidelines complying with Dutch and EU legislation. All experimental animal protocols were evaluated and approved by the institutional animal care and use committee. Wild-type, Abcb1a/1b^-/-, Abcg2^-/-, Abcb1a/1b; Abcg2^-/-, Slco1a/1b^-/- male mice, and Cyp3a^-/- and Cyp3aXAV female mice, all of a >99% FVB genetic background, were used between 9 and 16 weeks of age. […] All experimental animal protocols (WP9450, 9669, 9760), including power calculations, designed under the nationally approved DEC/CCD project AVD301002016595, were evaluated and approved by the institutional animal care and use committee of The Netherlands Cancer Institute.
# Elacridar hydrochloride was dissolved in DMSO (53 mg/mL) in order to obtain 50 mg elacridar base per mL DMSO. The stock solution was further diluted with a mixture of polysorbate 20, 100% ethanol and 5% glucose water to yield a concentration of 5 mg/mL elacridar [DMSO: polysorbate 20: 100% ethanol: 5% glucose water = 10:15:15:60, (v/v/v/v)]. All dosing solutions were prepared freshly on the day of the experiment.
# For the 4 h transporter experiments, tail-vein blood samples were collected at 0.125, 0.25, 0.5, 1, and 2 h time points after oral administration, respectively. For the CYP3A 8 h experiments, tail-vein blood sampling was performed at 0.25, 0.5, 1, 2, and 4 h, respectively. While for elacridar inhibition experiments, tail-vein blood samples were collected at 0.125, 0.25, 0.5, and 1 h time points after oral administration, respectively. Blood sample collection was performed using microvettes containing dipotassium EDTA. At the last time point in each experiment (2, 4 or 8 h), mice were anesthetized with 5% isoflurane and blood was collected by cardiac puncture. Blood samples were collected in Eppendorf tubes containing heparin as an anticoagulant. The mice were then sacrificed by cervical dislocation and brain, liver, kidney, lung, small intestine and testis were rapidly removed. Plasma was isolated from the blood by centrifugation at 9000× g for 6 min at 4 °C, and the plasma fraction was collected and stored at −30 °C until analysis. Organs were homogenized with 4% (w/v) bovine serum albumin and stored at −30 °C until analysis.
# Pharmacokinetic parameters were calculated by noncompartmental methods using the PK solver software. The area under the plasma concentration–time curve (AUC) was calculated using the trapezoidal rule, without extrapolating to infinity. The peak plasma concentration (Cmax) and the time of maximum plasma concentration (Tmax) were estimated from the original (individual mouse) data. One-way analysis of variance (ANOVA) was used when multiple groups were compared and the Tukey post hoc correction was used to accommodate multiple testing. The two-sided unpaired Student’s t-test was used when treatments or differences between two specific groups were compared using the software GraphPad Prism 8 (GraphPad Software Inc., La Jolla, CA, USA). All the data were log-transformed before statistical tests were applied. Differences were considered statistically significant when p < 0.05. All data are presented as geometric mean ± SD.
# [1] = Abcb1a/1b;Abcg2-/- (>99% FVB genetic background), male Abcb1a/1b;Abcg2-/- mice, elacridar 50 mg/kg oral 2 h prior
# [2] = Abcb1a/1b;Abcg2-/- (>99% FVB genetic background), male Abcb1a/1b;Abcg2-/- mice, vehicle
# [3] = wild-type (>99% FVB genetic background), male wild-type mice, elacridar 50 mg/kg oral 2 h prior
# [4] = wild-type (>99% FVB genetic background), male wild-type mice, vehicle
smiles,measurement,setting,value
COc1ccc(CN2C3CC2CN(c2ccc(-c4cc(OCC(C)(C)O)cn5ncc(C#N)c45)cn2)C3)cn1 [selpercatinib],concentration at 2 h,"Abcb1a/1b;Abcg2-/- (>99% FVB genetic background), brain, male Abcb1a/1b;Abcg2-/- mice, elacridar 50 mg/kg oral 2 h prior, read-out: Cbrain",4710 ± 484 ng/g
same,concentration at 2 h,"Abcb1a/1b;Abcg2-/- (>99% FVB genetic background), brain, male Abcb1a/1b;Abcg2-/- mice, vehicle, read-out: Cbrain",4730 ± 638 ng/g
same,concentration at 2 h,"FVB (Abcb1a/1b;Abcg2-/-), liver, with elacridar 50 mg/kg oral, 2 h before selpercatinib, male Abcb1a/1b;Abcg2-/- mice, elacridar 50 mg/kg oral 2 h prior, read-out: CLiver",23600 ng/g
same,concentration at 2 h,"FVB (Abcb1a/1b;Abcg2-/-), liver, male Abcb1a/1b;Abcg2-/- mice, vehicle, read-out: CLiver",21400 ng/g
same,concentration at 2 h,"FVB (wild-type), liver, with elacridar 50 mg/kg oral, 2 h before selpercatinib, male wild-type mice, elacridar 50 mg/kg oral 2 h prior, read-out: CLiver",20000 ng/g
same,concentration at 2 h,"FVB (wild-type), liver, male wild-type mice, vehicle, read-out: CLiver",18100 ng/g
same,concentration at 2 h,"FVB, small intestine tissue together with contents, male Abcb1a/1b;Abcg2-/- mice, elacridar 50 mg/kg oral 2 h prior, read-out: CSI + SIC (small intestine tissue together with contents concentration)",21200 ng/g
same,concentration at 2 h,"FVB, small intestine tissue together with contents, male Abcb1a/1b;Abcg2-/- mice, vehicle, read-out: CSI + SIC (small intestine tissue together with contents concentration)",18800 ng/g
same,concentration at 2 h,"FVB, small intestine tissue together with contents, male wild-type mice, elacridar 50 mg/kg oral 2 h prior, read-out: CSI + SIC (small intestine tissue together with contents concentration)",26600 ng/g
same,concentration at 2 h,"FVB, small intestine tissue together with contents, male wild-type mice, vehicle, read-out: CSI + SIC (small intestine tissue together with contents concentration)",37600 ng/g
same,concentration at 2 h,"FVB, testis, male Abcb1a/1b;Abcg2-/- mice, elacridar 50 mg/kg oral 2 h prior, read-out: Ctestis",9200 ± 856 ng/g
same,concentration at 2 h,"FVB, testis, male Abcb1a/1b;Abcg2-/- mice, vehicle, read-out: Ctestis",7020 ± 664 ng/g
same,concentration at 2 h,"FVB, testis, male wild-type mice, elacridar 50 mg/kg oral 2 h prior, read-out: Ctestis",5710 ± 1740 ng/g
same,concentration at 2 h,"FVB, testis, male wild-type mice, vehicle, read-out: Ctestis",788 ± 159 ng/g
same,Cmax,[1],9620 ± 776 ng/mL
same,Tmax,[1],47.4 ± 19.8 min
same,AUC(0-t),[1],17300 ng·h/mL
same,Cmax,[2],8860 ± 792 ng/mL
same,Tmax,[2],60 min
same,AUC(0-t),[2],15100 ng·h/mL
same,AUC(0-t),"FVB, wild-type, male wild-type mice, vehicle",14100 ng·h/mL
same,Cmax,[3],7470 ± 1850 ng/mL
same,Tmax,[3],30 ± 16.2 min
same,AUC(0-t),[3],12900 ng·h/mL
same,Cmax,[4],8740 ± 1560 ng/mL
same,Tmax,[4],45 ± 16.2 min
same,concentration at 2 h,"wild-type (>99% FVB genetic background), brain, male wild-type mice, elacridar 50 mg/kg oral 2 h prior, read-out: Cbrain",2760 ± 851 ng/g
same,concentration at 2 h,"wild-type (>99% FVB genetic background), brain, male wild-type mice, vehicle, read-out: Cbrain",210 ± 40 ng/g
same,abnormal external behavior,"wild-type mice, oral co-administration of elacridar",without any abnormal external behavior
